Assay results reported in patent US20230123334A1, “AMINO LIPID COMPOUND, PREPARATION METHOD THEREFOR, AND APPLICATION THEREOF” (SHENZHEN SHENXIN BIOTECHNOLOGY CO., LTD., priority 2020, published 2023).

Each molecule was assayed on HEK293 cells (assay: Preliminary screening as mRNA vectors, EGFP mRNA transfection of HEK293 cells). Details: EGFP mRNA 50 ng per well, 96-well plates; percentage of GFP fluorescent cells relative to total number of cells (Hoechst).
Type: cell-based
Method: Cell line: HEK293 cells (ATCC CRL-1573™)
Medium: DMEM supplemented with 10% fetal bovine serum (Invitrogen)
Screening: cell transfection on 96-well plates
Detection (readout): percentage of the number of GFP fluorescent cells relative to the total number of cells (the total number of cells was determined using nucleus dye Hoechst). Lipofectamine2000 (Invitrogen) was used as the positive control.
Method: the experimental method was basically the same with Example 4, and the mass of EGFP mRNA (TriLink) for transfection was 50 ng per well.
For `CCCCCCNc1nc(NCCN(C)C)nc(SCCCCCC)n1` [Compound D1S6N6], the “Absolute mRNA transfection efficiency in HEK293 cells” value (shortened to “Absolute mRNA transfection efficiency”) was 0.8%. For `CCCCCCCNc1nc(NCCN(C)C)nc(SCCCCCC)n1` [Compound D1S6N7], the “Absolute mRNA transfection efficiency” value was 2.3%. `CCCCCCCCNc1nc(NCCN(C)C)nc(SCCCCCC)n1` [Compound D1S6N8] was tested, and the “Absolute mRNA transfection efficiency” value was 3.1%. `CCCCCCCCCNc1nc(NCCN(C)C)nc(SCCCCCC)n1` [Compound D1S6N9] was tested, and the “Absolute mRNA transfection efficiency” value was 1.8%. With `CCCCCCCCCCCNc1nc(NCCN(C)C)nc(SCCCCCC)n1` [Compound D1S6N11] the “Absolute mRNA transfection efficiency” value was 1.0%. With `CCCCCCCCCCCCNc1nc(NCCN(C)C)nc(SCCCCCC)n1` [Compound D1S6N12] the “Absolute mRNA transfection efficiency” value was 0.0%. For `CCCCCCCCCCCCCNc1nc(NCCN(C)C)nc(SCCCCCC)n1` [Compound D1S6N13], the “Absolute mRNA transfection efficiency” value was 1.8%. In the case of `CCCCCCCCCCCCCCCNc1nc(NCCN(C)C)nc(SCCCCCC)n1` [Compound D1S6N15], the “Absolute mRNA transfection efficiency” value is reported as 3.6%. In the case of `CCCCCCCCCCCCCCCCNc1nc(NCCN(C)C)nc(SCCCCCC)n1` [Compound D1S6N16], the “Absolute mRNA transfection efficiency” value is reported as 3.3%. `CCCCCCCCCCCCCCCCCCNc1nc(NCCN(C)C)nc(SCCCCCC)n1` [Compound D1S6N18] was tested, and the “Absolute mRNA transfection efficiency” value was 32.7%. In the case of `CCCCCCSc1nc(NCCN(C)C)nc(SCCCCCC)n1` [Compound D1S6S6], the “Absolute mRNA transfection efficiency” value is reported as 0.7%. In the case of `CCCCCCCSc1nc(NCCN(C)C)nc(SCCCCCC)n1` [Compound D1S6S7], the “Absolute mRNA transfection efficiency” value is reported as 1.0%. With `CCCCCCCCSc1nc(NCCN(C)C)nc(SCCCCCC)n1` [Compound D1S6S8] the “Absolute mRNA transfection efficiency” value was 0.7%. With `CCCCCCCCCSc1nc(NCCN(C)C)nc(SCCCCCC)n1` [Compound D1S6S9] the “Absolute mRNA transfection efficiency” value was 2.3%. `CCCCCCCCCCSc1nc(NCCN(C)C)nc(SCCCCCC)n1` [Compound D1S6S10] was tested, and the “Absolute mRNA transfection efficiency” value was 0.7%. For `CCCCCCCCCCCSc1nc(NCCN(C)C)nc(SCCCCCC)n1` [Compound D1S6S11], the “Absolute mRNA transfection efficiency” value was 0.4%. In the case of `CCCCCCCCCCCCSc1nc(NCCN(C)C)nc(SCCCCCC)n1` [Compound D1S6S12], the “Absolute mRNA transfection efficiency” value is reported as 0.6%. `CCCCCCCCCCCCCCSc1nc(NCCN(C)C)nc(SCCCCCC)n1` [Compound D1S6S14] was tested, and the “Absolute mRNA transfection efficiency” value was 0.8%. `CCCCCCCCCCCCCCCSc1nc(NCCN(C)C)nc(SCCCCCC)n1` [Compound D1S6S15] was tested, and the “Absolute mRNA transfection efficiency” value was 1.2%. For `CCCCCCCCCCCCCCCCSc1nc(NCCN(C)C)nc(SCCCCCC)n1` [Compound D1S6S16], the “Absolute mRNA transfection efficiency” value was 0.9%. In the case of `CCCCCCCCCCCCCCCCCCSc1nc(NCCN(C)C)nc(SCCCCCC)n1` [Compound D1S6S18], the “Absolute mRNA transfection efficiency” value is reported as 15.9%. With `CCCCCCCSc1nc(NCCCCCC)nc(NCCN(C)C)n1` [Compound D1S7N6] the “Absolute mRNA transfection efficiency” value was 5.1%. For `CCCCCCCNc1nc(NCCN(C)C)nc(SCCCCCCC)n1` [Compound D1S7N7], the “Absolute mRNA transfection efficiency” value was 4.4%. In the case of `CCCCCCCCNc1nc(NCCN(C)C)nc(SCCCCCCC)n1` [Compound D1S7N8], the “Absolute mRNA transfection efficiency” value is reported as 2.0%. For `CCCCCCCCCNc1nc(NCCN(C)C)nc(SCCCCCCC)n1` [Compound D1S7N9], the “Absolute mRNA transfection efficiency” value was 10.0%. With `CCCCCCCCCCCNc1nc(NCCN(C)C)nc(SCCCCCCC)n1` [Compound D1S7N11] the “Absolute mRNA transfection efficiency” value was 5.8%. For `CCCCCCCCCCCCNc1nc(NCCN(C)C)nc(SCCCCCCC)n1` [Compound D1S7N12], the “Absolute mRNA transfection efficiency” value was 5.4%. For `CCCCCCCCCCCCCNc1nc(NCCN(C)C)nc(SCCCCCCC)n1` [Compound D1S7N13], the “Absolute mRNA transfection efficiency” value was 12.8%. In the case of `CCCCCCCCCCCCCCCNc1nc(NCCN(C)C)nc(SCCCCCCC)n1` [Compound D1S7N15], the “Absolute mRNA transfection efficiency” value is reported as 21.3%. For `CCCCCCCCCCCCCCCCNc1nc(NCCN(C)C)nc(SCCCCCCC)n1` [Compound D1S7N16], the “Absolute mRNA transfection efficiency” value was 29.5%. With `CCCCCCCCCCCCCCCCCCNc1nc(NCCN(C)C)nc(SCCCCCCC)n1` [Compound D1S7N18] the “Absolute mRNA transfection efficiency” value was 35.7%. `CCCCCCCSc1nc(NCCN(C)C)nc(SCCCCCCC)n1` [Compound D1S7S7] was tested, and the “Absolute mRNA transfection efficiency” value was 14.9%. With `CCCCCCCCSc1nc(NCCN(C)C)nc(SCCCCCCC)n1` [Compound D1S7S8] the “Absolute mRNA transfection efficiency” value was 16.7%. For `CCCCCCCCCSc1nc(NCCN(C)C)nc(SCCCCCCC)n1` [Compound D1S7S9], the “Absolute mRNA transfection efficiency” value was 8.1%.

The molecules below were run on HEK293 cells (assay: Preliminary screening as DNA vectors, GFP transfection of HEK293 cells). Details: amino lipid/DOPE liposome with 75 ng plasmid DNA (psin-EGFP-IRES-Puro); number of GFP-expressing cells divided by total nuclei (Hoechst).
Type: cell-based
Method in brief: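 Lipid + DOPE liposomes (NaOAc, pH 5.6) complexed w/ 75 ng psin-EGFP-IRES-Puro, 30 min RT; added to 3-5×10^4 HEK293/well, 37° C. Hoechst 0.2 μg/mL at 20-24 h, imaged after further 20-24 h. Efficiency = GFP+ cells / total nuclei.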
For `CCCCCCCCCCCCCCCCCCNc1nc(NCCN2CCN(C)CC2)nc(SCCCCCCCCCCCCCCCCCC)n1` [S18N18 D5], the “Absolute DNA transfection efficiency in HEK293 cells” value (“Absolute DNA transfection efficiency” below) was 0.0%. For `CCCCCCCCCCCCCCCCCCNc1nc(NCCCN(C)C)nc(SCCCCCCCCCCCCCCCCCC)n1` [S18N18 D6], the “Absolute DNA transfection efficiency” value was 0.4%. For `CCCCCCCCCCCCCCCCCCNc1nc(NCCN(CC)CC)nc(SCCCCCCCCCCCCCCCCCC)n1` [S18N18 D7], the “Absolute DNA transfection efficiency” value was 0.0%. `CCCCCCCCCCCCCCCCCCNc1nc(NCCCN2CCOCC2)nc(SCCCCCCCCCCCCCCCCCC)n1` [S18N18 D8] was tested, and the “Absolute DNA transfection efficiency” value was 0.0%. With `CCCCCCCCCCCCCCCCCCNc1nc(NCCCN2CCN(C)CC2)nc(SCCCCCCCCCCCCCCCCCC)n1` [S18N18 D9] the “Absolute DNA transfection efficiency” value was 0.0%. With `CCCCCCCCCCCCCCCCCCNc1nc(NCC2CCN(C)CC2)nc(SCCCCCCCCCCCCCCCCCC)n1` [S18N18 D10] the “Absolute DNA transfection efficiency” value was 0.0%. With `CCCCCCCCCCCCCCCCCCSc1nc(NCCN(C)C)nc(N(CCCCCCCCCCCC)CCCCCCCCCCCC)n1` [S18^2N12 D1] the “Absolute DNA transfection efficiency” value was 0.0%. With `CCCCCCCCCCCCCCCCCCSc1nc(NCCN2CCOCC2)nc(N(CCCCCCCCCCCC)CCCCCCCCCCCC)n1` [S18^2N12 D2] the “Absolute DNA transfection efficiency” value was 0.0%. In the case of `CCCCCCCCCCCCCCCCCCSc1nc(NCCN2CCCC2)nc(N(CCCCCCCCCCCC)CCCCCCCCCCCC)n1` [S18^2N12 D3], the “Absolute DNA transfection efficiency” value is reported as 0.2%. In the case of `CCCCCCCCCCCCCCCCCCSc1nc(NCCN2CCCCC2)nc(N(CCCCCCCCCCCC)CCCCCCCCCCCC)n1` [S18^2N12 D4], the “Absolute DNA transfection efficiency” value is reported as 0.0%. In the case of `CCCCCCCCCCCCCCCCCCSc1nc(NCCN2CCN(C)CC2)nc(N(CCCCCCCCCCCC)CCCCCCCCCCCC)n1` [S18^2N12 D5], the “Absolute DNA transfection efficiency” value is reported as 0.0%. In the case of `CCCCCCCCCCCCCCCCCCSc1nc(NCCCN(C)C)nc(N(CCCCCCCCCCCC)CCCCCCCCCCCC)n1` [S18^2N12 D6], the “Absolute DNA transfection efficiency” value is reported as 1.6%. `CCCCCCCCCCCCCCCCCCSc1nc(NCCN(CC)CC)nc(N(CCCCCCCCCCCC)CCCCCCCCCCCC)n1` [S18^2N12 D7] was tested, and the “Absolute DNA transfection efficiency” value was 0.0%. `CCCCCCCCCCCCCCCCCCSc1nc(NCCCN2CCOCC2)nc(N(CCCCCCCCCCCC)CCCCCCCCCCCC)n1` [S18^2N12 D8] was tested, and the “Absolute DNA transfection efficiency” value was 0.0%. In the case of `CCCCCCCCCCCCCCCCCCSc1nc(NCCCN2CCN(C)CC2)nc(N(CCCCCCCCCCCC)CCCCCCCCCCCC)n1` [S18^2N12 D9], the “Absolute DNA transfection efficiency” value is reported as 0.0%. `CCCCCCCCCCCCCCCCCCSc1nc(NCC2CCN(C)CC2)nc(N(CCCCCCCCCCCC)CCCCCCCCCCCC)n1` [S18^2N12 D10] was tested, and the “Absolute DNA transfection efficiency” value was 0.4%.
